Ends that are not written are not given here.
Key:
Malassezia furfur [1] = assay: Long-term stability of P18 (12 weeks at 37° C.) tested on Malassezia furfur, CFU; format: cell-based; conditions: for colony-forming units: mean ± SD
Protocol: Since storage over longer time periods may be necessary, in the following a 1 mM P18 peptide solution (P18 sequence H-KWKLFKKIPKFLHLAKKF-NH2; SEQ ID NO: 3) was stored for 12 weeks at 37° C. and the antifungal activity of the stored solution on Malassezia furfur was compared to the activity of a freshly prepared 1 mM P18 peptide solution. This was done through a growth test, which was carried out as follows:
(§1) Growth medium: M472-Pityrosporum medium according to DSMZ
(§2) The components were sterilized at 121° C., 1 bar superatmospheric pressure for 20 minutes.
(§3) 2 g/L of olive oil (sterilized by filtration and, after autoclaving, added to the other components)
(§4) Since it was a two-phase medium, the complete medium was treated with sonication in order to enlarge the phase boundary.
(§5) For agar plates, if appropriate, 150 g/L of agar agar were added to the medium.
(§6) The growth test was carried out as follows: A shake flask with M472-Pityrosporum medium was inoculated with M. furfur and incubated with shaking overnight at 30° C. and 200 rpm.
A 96-well microtiter plate was filled with in each case 100 μl of M472-Pityrosporum medium and inoculated with M. furfur suspension of the overnight culture. The M. furfur suspension was adjusted at the start of the experiment to an optical density, measured at 600 nm, of 0.02. The concentrates of the inhibitor solutions were 1 mM in water.
(§7) The growth of the following batches was compared:
M. furfur suspension without the addition of an inhibitor.
M. furfur suspension and addition of a fresh aqueous P18 solution with a final concentration of 50 μM.
M. furfur suspension and addition of a fresh aqueous P18 solution with a final concentration of 25 μM.
M. furfur suspension and addition of a P18 solution that had been stored at 37° C. for 12 weeks, with a final concentration of 50 μM.
M. furfur suspension and addition of a P18 solution that had been stored at 37° C. for 12 weeks, with a final concentration of 25 μM.
(§8) The microtiter plate was incubated with shaking at 30° C.
The growth was observed over 24 hours by measuring the optical density. The colony-forming units (CFU) were then determined by plating out 1 μl and 5 μl from each of the suspensions and, after incubation for 6 days, counting the colonies. The CFU was determined in order to exclude an influence of the two-phase medium and also the growth form of M. furfur on the optical density. The experiments were carried out at least in triple determinations.

E. coli cells = assay: Biodegradability of P18: chymotrypsin digestion, then antimicrobial activity on E. coli cells; format: cell-based, Escherichia coli; conditions: for optical density at 620 nm in two independent experiments: aqueous P18 solution 10 μM, undigested, cell gives both experiments
Protocol: Firstly, the peptide P18 was digested by adding chymotrypsin (from bovine pancreas, Sigma). For this, a 1 mM P18 solution was prepared and treated in accordance with the manufacturer's instructions. The samples were incubated for 16 hours at 37° C. The negative control used was a sample of a P18 solution without addition of chymotrypsin or a control solution which comprised only chymotrypsin, but no P18. The antimicrobial activity of P18 on E. coli cells was then investigated. The test was carried out as described in Example 3.
The growth of the following mixtures was compared by measuring the optical density:
E. coli suspension without the addition of an inhibitor.
E. coli suspension and addition of an aqueous P18 solution with a final concentration of 10 μM. The P18 solution had been stored beforehand for 16 hours at 37° C.
E. coli suspension and addition of an aqueous P18 solution with a final concentration of 10 μM. The P18 solution had been stored beforehand in accordance with the manufacturer's instructions for 16 hours at 37° C. and treated with chymotrypsin.
E. coli suspension and addition of an aqueous chymotrypsin solution which comprised, as control, the same amount of chymotrypsin as the P18 solution which was digested with chymotrypsin. This solution too had been stored beforehand for 16 hours at 37° C. This mixture was chosen in order to exclude an antimicrobial effect of the chymotrypsin.
The growth was observed over a period of 16 hours by measuring the optical density.

Malassezia furfur [2] = assay: Incubation times with P18 from 5 minutes to 1 hour, CFU of M. furfur, compared to Zincpyrithione; format: cell-based
Protocol: Since growth inhibition of M. furfur by the peptide P18 (P18 peptide sequence H-KWKLFKKIPKFLHLAKKF-NH2; SEQ ID NO: 3) had so far only been analyzed over incubation times of more than one hour, now the effect of the peptide P18 within the first minutes of incubation (5 minutes, 10 minutes and 20 minutes) up to the first hour after adding to the M. furfur overnight culture was tested and compared to the reference substance Zincpyrithione (Sigma Aldrich). For this, the peptide P18 and the reference substance Zincpyrithione were used in concentrations of 100 μM, 200 μM and 500 μM. The experiments were carried out as follows:
as §1, §2, §3, §4, §5, §6
A 96-well microtiter plate was filled with in each case 100 μl of M472-Pityrosporum medium and inoculated with M. furfur suspension of the overnight culture. The M. furfur suspension was adjusted at the start of the experiment to an optical density, measured at 600 nm, of 0.1.
as §7
M. furfur suspension and addition of the peptide P18 with a final concentration of 100 μM, plating out after 5 minutes, 10 minutes, 20 minutes and 60 minutes
M. furfur suspension and addition of the peptide P18 with a final concentration of 200 μM plating out after 5 minutes, 10 minutes, 20 minutes and 60 minutes
M. furfur suspension and addition of the peptide P18 with a final concentration of 500 μM plating out after 5 minutes, 10 minutes, 20 minutes and 60 minutes
M. furfur suspension and addition of Zincpyrithione with a final concentration of 100 μM plating out after 5 minutes, 10 minutes, 20 minutes and 60 minutes
M. furfur suspension and addition of Zincpyrithione with a final concentration of 200 μM plating out after 5 minutes, 10 minutes, 20 minutes and 60 minutes
M. furfur suspension and addition of Zincpyrithione with a final concentration of 500 μM plating out after 5 minutes, 10 minutes, 20 minutes and 60 minutes
as §8
After the incubation times indicated above, the colony-forming units (CFU) were determined by plating out 50 μl from each of the suspensions and, after incubation for 6 days, counting the colonies. The CFU was determined in order to exclude an influence of the two-phase medium and also the growth form of M. furfur on the optical density. The experiments were independently repeated.

## KWKLFKKIPKFLHLAKKF-NH2 [P18, KWKLFKKIPKFLHLAKKF-NH2]
Malassezia furfur [1]; 1 mM solution stored for 12 weeks at 37° C.
  influence of storage on the activity of the P18 peptide solution: has not influenced the activity
Malassezia furfur [1]; aqueous P18 solution stored 12 weeks at 37° C., 25 μM final conc., incubation time 16-18 h
  colony-forming units: 6 ± 7
Malassezia furfur [1]; aqueous P18 solution stored 12 weeks at 37° C., 25 μM final conc., incubation time 24 h
  colony-forming units: 5 ± 5
Malassezia furfur [1]; aqueous P18 solution stored 12 weeks at 37° C., 50 μM final conc., incubation time 16-18 h
  colony-forming units: 0 ± 0
Malassezia furfur [1]; aqueous P18 solution stored 12 weeks at 37° C., 50 μM final conc., incubation time 24 h
  colony-forming units: 1 ± 1
Malassezia furfur [1]; fresh aqueous P18 solution, 25 μM final conc., incubation time 16-18 h
  colony-forming units: 5 ± 8
Malassezia furfur [1]; fresh aqueous P18 solution, 25 μM final conc., incubation time 24 h
  colony-forming units: 1 ± 2
Malassezia furfur [1]; fresh aqueous P18 solution, 50 μM final conc., incubation time 16-18 h
  colony-forming units: 0 ± 0
Malassezia furfur [1]; fresh aqueous P18 solution, 50 μM final conc., incubation time 24 h
  colony-forming units: 1 ± 1
E. coli cells; incubation time 0 h
  optical density at 620 nm in two independent experiments: 0-0
E. coli cells; incubation time 16 h
  optical density at 620 nm in two independent experiments: 0.01-0.09
E. coli cells; chymotrypsin, 16 hours at 37° C.
  biodegradability (protease digestion): digestion of P18 with a serine protease, such as, for example, chymotrypsin, is possible
Malassezia furfur [2]; after the first 10 minutes of incubation
  number of living Malassezia furfur cells: considerably reduced as compared to incubation with Zincpyrithione
Malassezia furfur [2]; final concentration 100 μM, 5 minutes
  colony-forming units after the indicated incubation time: >1000
Malassezia furfur [2]; final concentration 100 μM, 10 minutes
  colony-forming units after the indicated incubation time: >1000
Malassezia furfur [2]; final concentration 100 μM, 20 minutes
  colony-forming units after the indicated incubation time: 604
Malassezia furfur [2]; final concentration 100 μM, 60 minutes
  colony-forming units after the indicated incubation time: 149 ± 60
Malassezia furfur [2]; final concentration 200 μM, 5 minutes
  colony-forming units after the indicated incubation time: >1000
Malassezia furfur [2]; final concentration 200 μM, 10 minutes
  colony-forming units after the indicated incubation time: >1000
Malassezia furfur [2]; final concentration 200 μM, 20 minutes
  colony-forming units after the indicated incubation time: >1000
Malassezia furfur [2]; final concentration 200 μM, 60 minutes
  colony-forming units after the indicated incubation time: 52 ± 16
Malassezia furfur [2]; final concentration 500 μM, 5 minutes
  colony-forming units after the indicated incubation time: >1000
Malassezia furfur [2]; final concentration 500 μM, 10 minutes
  colony-forming units after the indicated incubation time: 398 ± 290
Malassezia furfur [2]; final concentration 500 μM, 20 minutes
  colony-forming units after the indicated incubation time: 26 ± 6
Malassezia furfur [2]; final concentration 500 μM, 60 minutes
  colony-forming units after the indicated incubation time: 1 ± 1

From patent publication US8765688B2, “Anti-dandruff compositions containing peptides” (priority 2007, dated 2014)
